This passage reports Ki results from ChEMBL document CHEMBL3351430, “Inhibition studies of new ureido-substituted sulfonamides incorporating a GABA moiety against human carbonic anhydrase isoforms I-XIV” (Bioorg Med Chem, 2014).

Targets include Carbonic anhydrase 9 (Homo sapiens, UniProt Q16790); Carbonic anhydrase 3 (Homo sapiens, UniProt P07451); Carbonic anhydrase 13 (Homo sapiens, UniProt Q8N1Q1).
For a further test, the target named is Carbonic anhydrase 6 (Homo sapiens, UniProt P23280). The test can be described thus: Inhibition of human recombinant carbonic anhydrase 6 pre-incubated for 15 mins by stopped-flow CO2 hydration assay.
Chain of Carbonic anhydrase 6 (P23280 whole entry): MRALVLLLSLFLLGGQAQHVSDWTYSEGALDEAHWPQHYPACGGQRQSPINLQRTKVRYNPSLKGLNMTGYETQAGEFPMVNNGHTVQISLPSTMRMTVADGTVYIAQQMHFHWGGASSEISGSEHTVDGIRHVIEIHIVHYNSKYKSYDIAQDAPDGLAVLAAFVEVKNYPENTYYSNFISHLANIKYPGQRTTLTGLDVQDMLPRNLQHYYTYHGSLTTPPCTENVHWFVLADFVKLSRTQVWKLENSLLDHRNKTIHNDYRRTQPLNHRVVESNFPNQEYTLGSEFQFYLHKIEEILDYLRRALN

Chain of Carbonic anhydrase 13 (Q8N1Q1 whole entry): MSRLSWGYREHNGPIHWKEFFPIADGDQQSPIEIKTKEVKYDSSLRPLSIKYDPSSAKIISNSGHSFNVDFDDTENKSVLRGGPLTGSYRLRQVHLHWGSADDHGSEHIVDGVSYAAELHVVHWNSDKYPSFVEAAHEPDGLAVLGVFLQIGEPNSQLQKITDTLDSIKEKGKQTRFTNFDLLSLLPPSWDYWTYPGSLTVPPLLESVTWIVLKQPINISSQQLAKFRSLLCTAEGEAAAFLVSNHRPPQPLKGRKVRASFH
Chain of Carbonic anhydrase 3 (P07451 whole entry): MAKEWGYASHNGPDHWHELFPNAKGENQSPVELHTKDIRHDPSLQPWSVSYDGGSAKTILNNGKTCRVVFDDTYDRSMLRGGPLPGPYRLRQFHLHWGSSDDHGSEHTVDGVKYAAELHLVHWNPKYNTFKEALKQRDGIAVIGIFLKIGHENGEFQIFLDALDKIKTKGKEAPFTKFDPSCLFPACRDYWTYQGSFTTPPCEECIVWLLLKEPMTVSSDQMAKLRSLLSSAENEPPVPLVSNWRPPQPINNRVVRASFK
Description for Carbonic anhydrase 13: Inhibition of human recombinant carbonic anhydrase 13 pre-incubated for 15 mins by stopped-flow CO2 hydration assay
Description for Carbonic anhydrase 3: Inhibition of human recombinant carbonic anhydrase 3 pre-incubated for 15 mins by stopped-flow CO2 hydration assay
Description for Carbonic anhydrase 9: Inhibition of human recombinant carbonic anhydrase 9 pre-incubated for 15 mins by stopped-flow CO2 hydration assay

On to `NS(=O)(=O)c1ccc(CNC(=O)CCCNC(=O)Nc2ccccc2)cc1`, for which the Ki on Carbonic anhydrase 6 was greater than 120 nM; at Carbonic anhydrase 9, 46 nM; on Carbonic anhydrase 3, greater than 21 µM; on Carbonic anhydrase 13, greater than 240 nM.

As for `NS(=O)(=O)c1ccc(CCNC(=O)CCCNC(=O)Nc2ccccc2)cc1`, the Ki at Carbonic anhydrase 6 was greater than 120 nM; on Carbonic anhydrase 9, 41.6 nM; at Carbonic anhydrase 3, greater than 21 µM; at Carbonic anhydrase 13, greater than 240 nM.

On to `NS(=O)(=O)c1ccc(CNC(=O)CCCNC(=O)NCc2ccccc2)cc1`, for which the figures for the inhibition constant (Ki) at Carbonic anhydrase 6, at Carbonic anhydrase 3 and at Carbonic anhydrase 13 were greater than 120 nM, greater than 21 µM and greater than 240 nM, respectively.

For `NS(=O)(=O)c1ccc(CCNC(=O)CCCNC(=O)NCc2ccccc2)cc1`, the Ki on Carbonic anhydrase 6 was greater than 120 nM; on Carbonic anhydrase 9, 106 nM; at Carbonic anhydrase 3, greater than 21 µM; at Carbonic anhydrase 13 it was greater than 240 nM.

For `NS(=O)(=O)c1ccc(CNC(=O)CCCNC(=O)NCCc2ccccc2)cc1`, the Ki is greater than 120 nM on Carbonic anhydrase 6, 301 nM on Carbonic anhydrase 9, greater than 21 µM on Carbonic anhydrase 3 and greater than 240 nM on Carbonic anhydrase 13.

Consider `NS(=O)(=O)c1ccc(CCNC(=O)CCCNC(=O)Nc2ccc([N+](=O)[O-])cc2)cc1`, for which the inhibition constant Ki at Carbonic anhydrase 6 was greater than 120 nM; on Carbonic anhydrase 9, 139 nM; on Carbonic anhydrase 3 it was greater than 21 µM; on Carbonic anhydrase 13, greater than 240 nM.
